The record followed here is patent US5843954A, “Camptothecin derivatives, preparations thereof and antitumor agents” (priority 1994, dated 1998).

Series [1] is described as follows: Antitumor activity for L1210 (life prolonging effect, mouse leukemia transplanted intraperitoneally). Format: in vivo. Particulars: mouse, in vivo, ip; numerator of therapeutic index; i.p. total dose; read-out: Maximum tolerable dose. As to the method:
(§1) 5×10^5 cells of mouse leukemia L1210 were transplanted intraperitoneally to a group of six female CDF1 mice (7 weeks old, body weight 17-19 g). The test compound was administered intraperitoneally on day 1, 5 and 9 and its life prolonging effect was observed.
(§2) In a case of the administration of a test compound as an acid addition salt the test compound was dissolved in water. The total administration amount was 1.56 mg/kg-400 mg/kg. The antitumor activity was expressed by the value (T/C%) wherein T denotes the mean survival days in the drug administered group and C denotes those in the non administered group. In case of equal to or more than 125% the drug is considered to be effective.

The next series deals with mouse leukemia L1210. The series is described as above. Format: in vivo. The settings on record: for minimal effective dose: Mus musculus, L1210, ip, read-out: Minimum effective dose; for 40-day survivors: group of six female CDF1 mice; for Therapeutic Index (Maximum tolerable dose/Minimum effective dose): i.p., L1210, CDF1 mice. As for the experimental part:
as §1, §2

Series [2] in a line: Acute toxicity test by intraperitoneal administration. Particulars: mouse, in vivo, ip, ICR male mice, 1 week observation. As to the method: Acute toxicity test was conducted by intraperitoneal administration using a group of twenty ICR male mice (4 weeks old, body weight around 20 g).
LD50 value was calculated by the Richfield-Willcokson method from a lethal ratio observing the fate of mice during 1 week after administration of a test compound.

Another series can be described thus: Water solubility. Format: physicochemical.
The mark [3] stands for this setting: denominator of therapeutic index, i.p. total dose.

Molecules are shown by their SMILES. Counter-ions that a name gives are not always drawn.

In general, LD50 refers to the dose expected to kill half of the subjects tested. Low readings indicate greater toxicity, high ones lower toxicity. `CCc1c2c(nc3ccc(O)cc13)-c1cc([C@@](O)(CC)C(=O)NCCN(C)C)c(COC(C)=O)c(=O)n1C2` [Compound C45]: the MTD in series [1] is 400 mg/kg. Besides, the minimal effective dose with mouse leukemia L1210 (setting [3]) is 100 mg/kg. Besides, the 40-day survivors in the series on mouse leukemia L1210 (at optimum dose) is 0/6. Further, the “Therapeutic Index (Maximum tolerable dose/Minimum effective dose)” value in the series on mouse leukemia L1210 is listed as 4. This compound gave an LD50 at 168 h in series [2] of 376 mg/kg.
In the same order, the values of `CCc1c2c(nc3ccc(O)cc13)-c1cc([C@@](O)(CC)C(=O)NCCN(C)C)c(COC(=O)C(C)C)c(=O)n1C2` [Compound C46] are 400 mg/kg, 25 mg/kg, 0/6, 16 and 478 mg/kg.
In the same order, the values of `CCOCCC(=O)OCc1c([C@@](O)(CC)C(=O)NCCN(C)C)cc2n(c1=O)Cc1c-2nc2ccc(O)cc2c1CC` [Compound C47] are 200 mg/kg, 50 mg/kg, 0/6, 4 and 471 mg/kg.
Taken in the same sequence, the figures for `CCc1c2c(nc3cc(F)c(OC)cc13)-c1cc([C@@](O)(CC)C(=O)NCCN(C)C)c(COC(=O)c3ccncc3)c(=O)n1C2` [Compound C43] were 6.25 mg/kg, 1.56 mg/kg, 2/6, above 4 and 165 mg/kg.
Broadly, the solubility is how much of the substance goes into solution per volume. A higher solubility goes with a readily soluble substance. For the compound `CC=CC(=O)OCc1c([C@@](O)(CC)C(=O)NCCN(C)C)cc2n(c1=O)Cc1c-2nc2ccc(O)cc2c1CC` [Compound C34], the solubility in the series “Water solubility” was above 59 mg/mL.
In the case of `CCc1c2c(nc3cc(F)ccc13)-c1cc([C@@](O)(CC)C(=O)NCCN(C)C)c(COC(=O)c3ccncc3)c(=O)n1C2` [Compound C41], the MTD in series [1] is 25 mg/kg. The minimal effective dose in the series on mouse leukemia L1210 (setting [3]) was below 1.56 mg/kg. Moreover, the 40-day survivors in the series with mouse leukemia L1210 (at optimum dose) was 2/6. Also, the “Therapeutic Index (Maximum tolerable dose/Minimum effective dose)” value with mouse leukemia L1210 is listed as above 16. Also, the LD50 at 168 h in series [2] was 220 mg/kg.
In the same order, the values of `CCc1c2c(nc3ccc(OC(C)=O)cc13)-c1cc([C@@](O)(CC)C(=O)NCCN(C)C)c(COC(=O)c3ccc(F)cc3)c(=O)n1C2` [Compound C48] are 200 mg/kg, 25 mg/kg, 0/6, 8 and 418 mg/kg.
Regarding `CC[C@@](O)(C(=O)O)c1cc2n(c(=O)c1CO)Cc1cc3ccccc3nc1-2` [CPT-Na salt, reference compound], in series [1], the MTD was 60 mg/kg. Further, the “Optimum dose: Total dose” value with mouse leukemia L1210 (CDF1 mice, i.p. on day 1, 5 and 9, total dose) was 60 mg/kg. In addition, the 40-day survivors in the series on mouse leukemia L1210 (at optimum dose) is listed as 0/6. The same compound had a T/C % with mouse leukemia L1210 (at optimum dose, i.p. on day 1, 5 and 9, mean survival days treated/non administered, >=125% effective) of 203%. In the series on mouse leukemia L1210 (setting [3]), this compound yielded a Minimum effective dose of 10 mg/kg. In the series on mouse leukemia L1210, the “Therapeutic Index (Maximum tolerable dose/Minimum effective dose)” value is 6. For the same compound, the LD50 at 168 h in series [2] amounted to 227 mg/kg.
Consider `CCc1c2c(nc3cc(F)c(C)cc13)-c1cc([C@@](O)(CC)C(=O)NCCN(C)C)c(COC(=O)c3ccncc3)c(=O)n1C2` [Compound C42], for which, in series [1], the MTD is 12.5 mg/kg. The minimal effective dose in the series on mouse leukemia L1210 (setting [3]) was 1.56 mg/kg. Also, the 40-day survivors in the series on mouse leukemia L1210 (at optimum dose) is recorded as 2/6. For the same compound, the “Therapeutic Index (Maximum tolerable dose/Minimum effective dose)” value with mouse leukemia L1210 is on record as above 8. Also, in series [2], the LD50 at 168 h was found to be 310 mg/kg.
In the same order, the values of `CCc1c2c(nc3ccc(C)cc13)-c1cc([C@@](O)(CC)C(=O)NCCN(C)C)c(COC(=O)c3ccncc3)c(=O)n1C2` [Compound C39] are 50 mg/kg, 3.13 mg/kg, 3/6, 16 and 320 mg/kg.
Taken in the same sequence, the figures for `CCc1c2c(nc3ccc(Cl)cc13)-c1cc([C@@](O)(CC)C(=O)NCCN(C)C)c(COC(=O)c3ccncc3)c(=O)n1C2` [Compound C40] were 6.25 mg/kg, 1.56 mg/kg, 1/6, 4 and 213 mg/kg.
